The record followed here is ChEMBL document CHEMBL5257151, “Design, synthesis, and pharmacological evaluation of N-(3-carbamoyl-1H-pyrazol-4-yl)-1,3-oxazole-4-carboxamide derivatives as interleukin-1 receptor-associated kinase 4 inhibitors with reduced potential for cytochrome P450 1A2 induction” (Bioorg Med Chem, 2023).

SMILES strings stand for the structures. pIC50: −log10 of the molar value.

The nature of series [1]: Inhibition of IL-1beta stimulated IL-6 production in human A549 cells pre-incubated for 1 hr followed by overnight stimulation by ELISA analysis. Type of series: functional, cell-based.
Series [2] relates to CYP1A2. The experiment in a line: Induction of CYP1A2 mRNA expression in human HepaRG cells assessed as fold change at 30 uM incubated for 48 hrs. Type of series: ADME, cell-based. Particulars: read-out: FC.
Series [3] has as its target T1, Interleukin-1 receptor-associated kinase 4 (Homo sapiens, UniProt Q9NWZ3).
T1 sequence (Q9NWZ3 whole entry): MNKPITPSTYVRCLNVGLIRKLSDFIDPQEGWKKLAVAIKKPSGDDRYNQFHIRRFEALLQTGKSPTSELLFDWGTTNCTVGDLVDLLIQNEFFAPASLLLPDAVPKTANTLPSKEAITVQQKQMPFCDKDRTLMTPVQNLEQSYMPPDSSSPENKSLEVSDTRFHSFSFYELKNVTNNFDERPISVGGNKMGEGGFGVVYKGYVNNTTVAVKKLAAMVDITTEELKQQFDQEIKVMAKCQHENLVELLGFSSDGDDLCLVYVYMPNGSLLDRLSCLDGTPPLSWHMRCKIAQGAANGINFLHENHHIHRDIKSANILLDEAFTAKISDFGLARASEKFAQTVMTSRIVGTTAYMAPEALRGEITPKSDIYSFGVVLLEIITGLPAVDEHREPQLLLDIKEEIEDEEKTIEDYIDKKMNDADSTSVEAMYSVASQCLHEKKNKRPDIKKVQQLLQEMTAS
The series is described as follows: Inhibition of human IRAK4 using biotinylated FGLARFSRFAGSSPSQSSMVARTQTVRGT peptide as substrate incubated for 1 hr in presence of ATP by ELISA assay.

The test system of series [4] is CYP1A2. The experiment in a line: Induction of CYP1A2 mRNA expression in human HepaRG cells assessed as fold change at 15 uM incubated for 48 hrs. Type of series: ADME, cell-based. Particulars: read-out: FC.
Series [5] has as its target T2, CYP3A4 (Homo sapiens, UniProt P08684). The series is described as follows: Reversible inhibition of CYP3A4 in human liver microsomes assessed as residual activity at 5 uM using midazolam as substrate preincubated for 30 mins followed by substrate addition measured after 20 mins by LC-MS/MS analysis relative to control. Particulars: probe midazolam, time 50 min, read-out: Activity. It is filed as ADME, Microsome.

Series [6] has as its target T2, CYP3A4. The series is described as follows: Time dependent inhibition of CYP3A4 in human liver microsomes assessed as residual activity at 5 uM using midazolam as substrate preincubated for 30 mins followed by substrate addition measured after 20 mins by LC-MS/MS analysis relative to control. It is filed as ADME, Microsome. Particulars: probe midazolam, read-out: Activity.

In series [7] the target is T3, CYP1A2 (Homo sapiens, UniProt P05177).
T3 sequence (P05177 whole entry): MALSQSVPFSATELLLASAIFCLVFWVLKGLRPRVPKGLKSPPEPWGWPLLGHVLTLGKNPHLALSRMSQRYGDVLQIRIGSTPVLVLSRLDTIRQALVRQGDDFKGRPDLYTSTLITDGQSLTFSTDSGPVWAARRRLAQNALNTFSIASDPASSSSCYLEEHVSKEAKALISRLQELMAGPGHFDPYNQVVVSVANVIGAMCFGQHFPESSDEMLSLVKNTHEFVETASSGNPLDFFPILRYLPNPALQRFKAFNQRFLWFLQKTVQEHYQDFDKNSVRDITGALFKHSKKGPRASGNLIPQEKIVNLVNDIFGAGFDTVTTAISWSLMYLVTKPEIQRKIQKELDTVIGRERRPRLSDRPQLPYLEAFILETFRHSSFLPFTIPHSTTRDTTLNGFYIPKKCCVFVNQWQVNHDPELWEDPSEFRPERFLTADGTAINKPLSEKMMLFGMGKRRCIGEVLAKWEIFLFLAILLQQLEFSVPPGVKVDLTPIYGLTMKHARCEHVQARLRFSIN
The series is described as follows: Reversible inhibition of CYP1A2 in human liver microsomes assessed as residual activity at 5 uM using phenacetin as substrate preincubated for 30 mins followed by substrate addition measured after 20 mins by LC-MS/MS analysis relative to control. It is filed as ADME, Microsome. Conditions: probe phenacetin, time 50 min, read-out: Activity.

Series [8] relates to CYP1A2. The series is described as follows: Induction of CYP1A2 mRNA expression in human HepaRG cells assessed as fold change at 5 uM incubated for 48 hrs. Type of series: ADME, cell-based. Conditions: read-out: FC.
Series [9] has as its target T4, CYP2C8 (Homo sapiens, UniProt P10632).
T4 sequence (P10632 whole entry): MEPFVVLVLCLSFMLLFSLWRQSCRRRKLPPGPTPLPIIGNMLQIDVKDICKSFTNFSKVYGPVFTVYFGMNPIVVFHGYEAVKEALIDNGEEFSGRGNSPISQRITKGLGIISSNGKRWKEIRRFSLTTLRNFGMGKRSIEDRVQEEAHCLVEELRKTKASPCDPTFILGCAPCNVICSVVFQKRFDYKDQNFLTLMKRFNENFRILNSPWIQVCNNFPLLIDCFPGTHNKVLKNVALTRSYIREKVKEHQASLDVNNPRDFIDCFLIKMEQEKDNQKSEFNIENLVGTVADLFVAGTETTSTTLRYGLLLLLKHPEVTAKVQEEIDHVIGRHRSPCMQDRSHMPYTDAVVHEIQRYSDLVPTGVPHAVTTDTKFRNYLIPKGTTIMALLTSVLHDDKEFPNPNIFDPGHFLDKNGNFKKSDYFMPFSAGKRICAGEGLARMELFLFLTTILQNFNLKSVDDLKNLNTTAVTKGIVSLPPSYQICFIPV
The experiment in a line: Reversible inhibition of CYP2C8 in human liver microsomes assessed as residual activity at 5 uM using amodiaquine as substrate preincubated for 30 mins followed by substrate addition measured after 20 mins by LC-MS/MS analysis relative to control. It is filed as ADME, Microsome. Conditions: probe amodiaquine, time 50 min, read-out: Activity.

For series [10], the target named is CYP2C9 (Homo sapiens, UniProt P11712). The series is described as follows: Reversible inhibition of CYP2C9 in human liver microsomes assessed as residual activity at 5 uM using diclofenac as substrate preincubated for 30 mins followed by substrate addition measured after 20 mins by LC-MS/MS analysis relative to control. Type of series: ADME, Microsome. Conditions: probe diclofenac, time 50 min, read-out: Activity.

The test system of series [11] is CYP1A2. The series is described as follows: Induction of CYP1A2 mRNA expression in human HepaRG cells assessed as fold change at 10 uM incubated for 48 hrs. Particulars: read-out: FC. It is filed as ADME, cell-based.
For series [12], the system named is CYP1A2. The series is described as follows: Induction of CYP1A2 mRNA expression in human HepaRG cells assessed as fold change at 7.5 uM incubated for 48 hrs. It is filed as ADME, cell-based. Conditions: read-out: FC.

Chain of CYP2C9 (P11712 whole entry): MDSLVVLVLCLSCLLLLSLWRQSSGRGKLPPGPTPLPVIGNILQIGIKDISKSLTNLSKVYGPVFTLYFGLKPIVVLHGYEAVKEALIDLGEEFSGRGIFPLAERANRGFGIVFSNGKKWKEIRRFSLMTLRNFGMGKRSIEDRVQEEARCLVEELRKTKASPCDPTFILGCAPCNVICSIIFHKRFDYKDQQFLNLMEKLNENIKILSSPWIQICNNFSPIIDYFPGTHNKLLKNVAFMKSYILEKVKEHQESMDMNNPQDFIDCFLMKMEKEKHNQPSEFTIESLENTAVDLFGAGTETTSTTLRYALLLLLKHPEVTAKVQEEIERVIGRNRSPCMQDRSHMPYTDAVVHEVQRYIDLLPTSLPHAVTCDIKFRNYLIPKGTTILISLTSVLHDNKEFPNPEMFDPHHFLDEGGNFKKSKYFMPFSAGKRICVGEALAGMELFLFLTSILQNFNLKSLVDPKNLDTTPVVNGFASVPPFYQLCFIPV
T2 sequence (P08684 whole entry): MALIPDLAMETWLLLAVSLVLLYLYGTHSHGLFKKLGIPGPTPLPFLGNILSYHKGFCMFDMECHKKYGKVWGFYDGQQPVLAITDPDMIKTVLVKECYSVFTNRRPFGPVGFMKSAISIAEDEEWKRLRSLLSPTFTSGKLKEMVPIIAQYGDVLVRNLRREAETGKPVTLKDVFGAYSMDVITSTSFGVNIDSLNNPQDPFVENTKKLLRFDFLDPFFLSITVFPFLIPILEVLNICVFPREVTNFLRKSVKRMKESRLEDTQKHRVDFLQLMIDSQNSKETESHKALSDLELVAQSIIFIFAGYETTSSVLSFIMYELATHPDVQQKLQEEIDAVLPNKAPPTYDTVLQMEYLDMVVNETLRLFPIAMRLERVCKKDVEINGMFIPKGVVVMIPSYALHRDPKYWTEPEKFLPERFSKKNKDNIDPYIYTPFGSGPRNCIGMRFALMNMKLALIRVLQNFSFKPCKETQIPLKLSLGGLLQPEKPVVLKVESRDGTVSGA

The compound `Cc1cc(-c2nc(C(=O)Nc3cn(C4CCS(=O)(=O)CC4)nc3C(N)=O)co2)ccn1` showed a pIC50 in [1] of 5.80. Moreover, the fold induction at 48 h, 30 µM in series [2] is 3.5.
For `Cc1cc(-c2nc(C(=O)Nc3c[nH]nc3C(N)=O)co2)ccn1`, in series [3], the pIC50 was 6.92.
Still for that read-out and setting: next, `NC(=O)c1nn(C2CCOCC2)cc1NC(=O)c1coc(-c2ccncc2F)n1`: 7.09; `CCc1cc(-c2nc(C(=O)Nc3cn(C4CCOCC4)nc3C(N)=O)co2)ccn1`: 7.85.
`Cc1cc(-c2nc(C(=O)Nc3cn(CC(C)C)nc3C(N)=O)co2)ccn1`: the fold induction at 48 h, 15 µM in [4] was determined as 4. The pIC50 in [3] is 7.32.
Regarding `CCn1cc(NC(=O)c2coc(-c3ccnc(C)c3)n2)c(C(N)=O)n1`, the activity at 20 min, 5 µM in series [5] stood at 100%; in series [6], 108%; in series [7], 47%; in [9] it was 103%; in series [10], 98%. In series [3], the pIC50 is 7.80. For the same compound, in series [8], the fold induction at 48 h, 5 µM is 16.
Turning to `NC(=O)c1nn(C2CCOCC2)cc1NC(=O)c1coc(-c2ccnc(C3CC3)c2)n1`, the pIC50 in series [3] is 7.17.
In the case of `Cc1cc(-c2ccc(C(=O)Nc3cn(C4CCOCC4)nc3C(N)=O)o2)ccn1`, the pIC50 in series [3] was 7.89.
On the same count and under the same terms, next, `NC(=O)c1nn(C2CCOCC2)cc1NC(=O)c1coc(-c2ccc(F)cc2)n1`: 7.59.
As for `COCCn1cc(NC(=O)c2coc(-c3ccnc(C)c3)n2)c(C(N)=O)n1`, the pIC50 in [3] was 7.74. For the same compound, in series [11], the fold induction at 48 h, 10 µM was 15.
As to `CCn1cc(NC(=O)c2csc(-c3ccncc3)n2)c(C(N)=O)n1`, the activity at 20 min, 5 µM in series [5] stood at 74%; in series [6], 78%; in series [7], 4%; in series [9], 70%; in [10], 56%. For the same compound, the pIC50 in [3] was 7.70.
For `Cc1cc(-c2nc(C(=O)Nc3cn(C4CCN(C)CC4)nc3C(N)=O)co2)ccn1`, the fold induction at 48 h, 15 µM in series [4] was 3.6. Further, the negative logarithm of the IC50 (pIC50) in series [3] was 7.74; in series [1], 6.35.
As for `CCCCn1cc(NC(=O)c2coc(-c3ccnc(C)c3)n2)c(C(N)=O)n1`, in series [3], the pIC50 is 7.60. The fold induction at 48 h, 5 µM in [8] stood at 8.9.
Turning to `Cc1cc(-n2ccc(C(=O)Nc3cn(C4CCOCC4)nc3C(N)=O)n2)ccn1`, the pIC50 in series [3] was 7.62.
With `CC(=O)N1CCC(n2cc(NC(=O)c3coc(-c4ccnc(C)c4)n3)c(C(N)=O)n2)CC1`, in series [4], the fold induction at 48 h, 15 µM is 3.2. Besides, the figures for the pIC50 in series [3] and in series [1] were 7.77 and 6.34, respectively.
For `Cc1cc(-c2nc(C(=O)Nc3cn(C)nc3C(N)=O)co2)ccn1`, the fold induction at 48 h, 7.5 µM in series [12] came out at 21. Further, the pIC50 in series [3] is 7.80.
In the case of `Cc1cc(-c2nc(C(=O)Nc3cn(C4CCOC4)nc3C(N)=O)co2)ccn1` (centres undefined), the pIC50 in series [3] is 7.52. The fold induction at 48 h, 30 µM in [2] is 10.
As for `CCn1cc(NC(=O)c2coc(-c3ccncc3)n2)c(C(N)=O)n1`, the activity at 20 min, 5 µM in series [5] stood at 70%; in [6], 89%; in series [7] it was 6%; in series [9], 103%; in series [10], 59%.
For `Cc1cc(-c2nc(C(=O)Nc3cn(CC4(C)COC4)nc3C(N)=O)co2)ccn1`, the pIC50 in series [3] is 6.82.
The same measure, in the same setting: next, `Cn1cc(-c2nc(C(=O)Nc3cn(C4CCOCC4)nc3C(N)=O)co2)ccc1=O`: 7.49.
Regarding `Cc1cc(-c2nc(C(=O)Nc3cn(CC4CCOC4)nc3C(N)=O)co2)ccn1` (centres undefined), the fold induction at 48 h, 15 µM in [4] stood at 4.5. Besides, in [3], the pIC50 is 7.47.
For `Cc1cc(-c2ncc(C(=O)Nc3cn(C4CCOCC4)nc3C(N)=O)o2)ccn1`, the negative-log IC50 (pIC50) in series [3] is 7.10.
Still for that read-out and setting: next, `NC(=O)c1nn(C2CCOCC2)cc1NC(=O)c1coc(-c2ccnc(CO)c2)n1`: 7.28.
